Results taken from patent publication US11358940B2, “K-Ras modulators” (THE REGENTS OF THE UNIVERSITY OF CALIFORNIA, priority 2017, dated 2022).

How the values were obtained:
H95 site of KRas = H95 site of KRas (Homo sapiens, UniProt P01116, H95C); test: Thermal melting analysis; type: binding; settings: FIG. 3
[1] = molecular target: T1, Kras4b H95C (1-169) mutant protein (GppNHp-loaded) (Homo sapiens, UniProt P01116, H95C); test: Disulfide tethering screen, dose response; type: binding; settings: FIG. 2
T1 construct: we generated Kras4b H95C (1-169) mutant protein; made in house
T1 sequence (P01116 1-169 isoform P01116-2 H95C): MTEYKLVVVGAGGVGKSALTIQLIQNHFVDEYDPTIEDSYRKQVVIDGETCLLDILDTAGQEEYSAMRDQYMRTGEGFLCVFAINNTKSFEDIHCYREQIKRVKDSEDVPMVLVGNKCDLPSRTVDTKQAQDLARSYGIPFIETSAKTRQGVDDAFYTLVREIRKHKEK
Excerpt: Disulfide tethering is a site-directed fragment-based approach to drug-discovery, which allows the screening low-affinity disulfide containing fragments against a native or introduced cysteine residue of a target protein. Fragment binding is reversible, and can be tuned to favor detection of only the strongest bound fragments through the use of increasing concentrations of a reductant (typically β-mecaptoethanol). This binding is not purely driven by reactivity; it is influenced by protein/ligand interactions and is independent of pKa or surface exposure. Bound fragments are detected by mass spectrometry and provide a lead into the drug discovery process.
To target H95 specifically, we generated Kras4b H95C (1-169) mutant protein, and used it (GppNHp-loaded), to search for compounds that could bind to active KRas in close proximity to H95. We performed a tethering screen of a disulfide containing fragment library at the University of California San Francisco.

[2] = molecular target: farnesylated and carboxymethylated KRas (FMe-KRas) (Homo sapiens, UniProt P01116); test: MALDI-TOF analysis of labeling of fully processed KRas; type: binding
farnesylated and carboxymethylated KRas (FMe-KRas), sequence (P01116 2-185 isoform P01116-2 limits assumed): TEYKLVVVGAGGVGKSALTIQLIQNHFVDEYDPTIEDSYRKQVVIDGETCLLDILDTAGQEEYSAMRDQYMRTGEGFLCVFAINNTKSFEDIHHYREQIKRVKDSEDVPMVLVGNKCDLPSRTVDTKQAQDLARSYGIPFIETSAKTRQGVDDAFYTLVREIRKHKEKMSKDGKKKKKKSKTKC

[3] = system: HupT4 pancreas carcinoma cells; test: Growth arrest in HupT4 cells; type: cell-based; settings: 24 h
Protocol: (§1) Cell viability in the presence of compounds (discussed in examples above) was measured using CellTiter-Glo (Promega). Cells were plated in black-walled 384-well plates (Greiner, 781091) at densities in accordance with their doubling time (for MEFs typically 1,000 cells/well in 20 μl), using the Multidrop Combi Reagent Dispenser (Thermo). They were then incubated overnight at 37° C. in a humidified atmosphere of 5% CO2 prior to compound addition.
(§2) Compound and dimethylsulfoxide (DMSO) addition to microplates was performed using the Access Laboratory Workstation (Labcyte) and Echo 555 (Labcyte) liquid handler. Source plates with compounds and DMSO were prepared and the Echo 555 was used to transfer 50 nL of compound, DMSO, or both to the appropriate wells. […] of complete culture medium was added to all wells of the microplate after compound addition. The highest final concentration in each assay was 100 μM or 50 μM with between seven to 12 dilutions. The final DMSO concentration in all wells was 0.2%.
[…] All conditions were done in triplicates and experiments performed at least thrice. Cellular ATP levels (an indicator of cell count) were determined with CellTiter-Glo (CTG, Promega G7573) luminescence assay, using an EnVision Plate Reader (PerkinElmer).
Plates were harvested at two time points. […] Growth inhibition was calculated by: […]

KRas H95C (1-169) = molecular target: T2, KRas H95C (1-169) (Homo sapiens, UniProt P01116, H95C); test: MALDI-TOF analysis of KRas H95C reacted with compound; type: binding; settings: reacted for 24 h
T2 construct: we generated Kras4b H95C (1-169) mutant protein; made in house
T2 sequence (P01116 1-169 isoform P01116-2 H95C): as the sequence (P01116 1-169 isoform P01116-2 H95C) above
Excerpt: Next, we reacted all three epoxides synthesized (structures depicted in FIG. 10A) with KRas H95C (1-169) to investigate reactivity at that site.
Single enantiomers of FNL-0012, compounds […] and FNL-0044 (R), then corresponding single enantiomers of FNL-0030, compounds FNL-0043 (S) and FNL-0045 (R), were synthesized (FIG. 14A). These enantiomers were investigated using a MALDI-TOF MS screen using KRAS4b (1-169) H95C, and also cell-based assays.

[4] = system: KRAS4b G12D, KRAS4b G12V, HRas WT/P53-, and SUIT-2; test: Cell proliferation experiments with analogues of FNL-0045; type: cell-based; settings: FIG. 15B
Protocol: as §1
as §2, with “The highest final concentration in each assay was 100 μM or 50 μM with between seven to 12 dilutions. The final DMSO concentration in all wells was 0.2%.” left out
Cells were incubated with compounds for 72 h. […] Cellular ATP levels (an indicator of cell count) were determined with CellTiter-Glo (CTG, Promega G7573) luminescence assay, using an EnVision Plate Reader (PerkinElmer).
Plates were harvested at two time points. […] After 72 h incubation, the compound treated plates were harvested using CTG reagent and luminescence read using the EnVision giving control growth (C) and compound treated well (T72) measurements. Growth inhibition was calculated by: […]

H95 site of KRas, sequence (P01116 1-188 isoform P01116-2 H95C): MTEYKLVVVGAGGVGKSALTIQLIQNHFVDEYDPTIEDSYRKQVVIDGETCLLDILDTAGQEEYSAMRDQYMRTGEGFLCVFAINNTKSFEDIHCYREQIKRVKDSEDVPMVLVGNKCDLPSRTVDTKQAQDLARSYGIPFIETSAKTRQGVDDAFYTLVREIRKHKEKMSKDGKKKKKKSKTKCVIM

shift in Tm upon fragment binding (H95 site of KRas)	binding at H95 site of KRas in dose response experiments [1]	Compound	other results
significant shifts in Tm	strong binders	CN(C)CCSSCCNC(=O)Cc1ccc(Cl)c(Cl)c1 [compound 917105]	
		O=C(Cc1ccc(Cl)c(Cl)c1)NCC1CO1 (stereo not shown) [FNL-0010]	covalent labeling of FMe-KRas [2]: did not label; growth arrest / cell proliferation [3]: did not affect cell proliferation; covalent modification of C95 (KRas H95C (1-169)): covalently labeled C95
significant shifts in Tm	strong binders	CN(C)CCSSCCn1cc(CNC(=O)c2n[nH]c3ccccc23)nn1 [compound 966854]	
		Cn1nc(C(=O)NCc2cn(C[C@@H]3CO3)nn2)c2ccccc21 [FNL-0088]	proliferation assay, R enantiomer compared with S enantiomer FNL-0090 [4]: compared favorably
significant shifts in Tm	strong binders	Cc1ccc(S(=O)(=O)c2cn(CCSSCCN(C)C)nn2)cc1 [compound 966844]	
